Measurements from US9708247B2, “Modulators of the eIF2alpha pathway” (The Regents of the University of California, priority 2013, dated 2017).

These compounds were tested on ATF4 luciferase reporter (assay: ATF4 luciferase reporter assay (Cell-luc) in HEK293T cells). Settings: ATF4 luciferase reporter, HEK293T cells; read-out: IC50 (nM) Cell-luc.
Type: cell-based, human
Text: FIGS. 1A-1C. […]
To identify inhibitors of PERK signaling, we engineered a reporter that allows monitoring of PERK activation in living cells. To this end, we constructed a retroviral vector containing the open-reading frame of firefly luciferase fused to the 5′UTR of ATF4 mRNA (FIG. 1A), which contains two short open-reading frames (uORFs) that control ATF4 translation in a stress-dependent manner. After infection, we established a HEK293T cell line harboring the stably integrated reporter. […] This format was used to screen 106,281 compounds covering a wide chemical space. We identified 460 hits (0.43%) (FIG. 1C), which were further validated in an 8-point dose-response assay using the same reporter. We further triaged the compounds by discarding inhibitors that also affected the IRE1 branch of the UPR using an XBP1-luciferase splicing reporter. […] We next used an orthogonal secondary screen that employed a different reporter (bi-cistronic ATF4-dGFPIRES-mCherry) stably integrated into a different cell line (U20S cells). The read-out of this latter screen was microscopy-based, which allowed us to simultaneously assess acute toxicity by cell counting, further reducing the number of viable hits to 77. As a tertiary screen, we tested compounds for their ability to inhibit ER stress-elicited induction of endogenous ATF4 by Western blot analysis. Twenty-eight compounds passed this test and were analyzed further.
ATF4 reporters were constructed by fusing the human full-length ATF4 5′-UTR (NCBI Accession BC022088.2) in front of the firefly luciferase (FLuc) or a destabilized eGFP (dEGFP) coding sequences lacking the initiator methionine.
The ATF4-FLuc reporter was generated by cloning a PCR-product containing the ATF4 full-length 5′-UTR (from +1 position a the transcription start site down to one nucleotide after the terminator codon of the second uORF) flanked by KpnI/XhoI and BglII sites at the 5′ and 3′ ends, respectively, into the KpnI-BglII sites of pCAX-F-XBP1-Luc. The resulting construct, pCAX-ATF4-FLuc, was then digested with BamHI, blunted with T4 DNA polymerase, and then digested with XhoI. The resulting fragment was then subcloned into the retroviral expression vector pLPCX (Clontech) after digesting it with HindIII, blunting with T4 DNA polymerase and then digesting with XhoI to generate pLPCX-ATF4-FLuc (DAA-312). DAA-312 was used to produce recombinant retroviruses using standard methods and the resulting viral supernatant was used to transduce HEK293T cells, which were then subsequently selected with puromycin to generate a stable cell line employed in the primary screen.
HEK293T cells carrying the ATF4 luciferase reporter were plated on poly-lysine coated 384 well plates (Greiner) at 30,000 cells per well. […] Luminescence was measured using One Glo (Promega) as specified by the manufacturer. […] Thus, these were considered unique to the PERK branch and were cherry-picked for further analysis.

SMILES | IC50
O=C(COc1ccc(Cl)cc1)N[C@H]1CC[C@H](NC(=O)COc2ccc(Cl)c([N+](=O)[O-])c2)CC1 [compound 874804] | 3 nM
C#Cc1ccc(OCC(=O)N[C@H]2CC[C@H](NC(=O)COc3ccc(N=[N+]=[N-])cc3)CC2)cc1 [compound 957866] | 232 nM
O=C(COc1ccc(Cl)c([N+](=O)[O-])c1)N[C@H]1CC[C@H](NC(=O)COc2ccc(Cl)c([N+](=O)[O-])c2)CC1 [compound 957889] | 11 nM
N=C(COc1ccc(Cl)c(F)c1)N[C@H]1CC[C@H](NC(=O)COc2ccc(Cl)c(F)c2)CC1 [compound 957915] | 344 nM
N=C(COc1ccc(Cl)c(F)c1)N[C@H]1CC[C@H](NC(=O)COc2ccc(Cl)c(F)c2)CC1 [compound 957916] | 122 nM

Same assay, conditions: Homo sapiens, HEK-293T, ATF4 luciferase reporter, HEK293T cells; read-out: IC50 (nM) Cell-luc

SMILES | IC50
CC(=O)c1cc(Cl)ccc1OCC(=O)N[C@H]1CC[C@H](NC(=O)COc2ccc(Cl)cc2)CC1 [compound 873972] | > 10000 nM
O=C(COc1ccc(Cl)cc1)N[C@H]1CC[C@H](NC(=O)COc2ccc(Cl)cc2C(=O)c2ccccc2)CC1 [compound 873973] | > 10000 nM
O=C(COc1ccc(Cl)cc1)NCc1ccc(CNC(=O)COc2ccc(Cl)cc2)cc1 [compound 874796] | > 10000 nM
O=C(COc1ccc(Cl)cc1)N[C@H]1CC[C@H](NC(=O)OCc2ccc(Cl)cc2)CC1 [compound 874797] | 122 nM
CC(C)c1ccc(OCC(=O)N[C@H]2CC[C@H](NC(=O)COc3ccc(Cl)cc3)CC2)cc1 [compound 874798] | 200 nM
CC(Oc1ccc(Cl)cc1)C(=O)N[C@H]1CC[C@H](NC(=O)COc2ccc(Cl)cc2)CC1 (stereo partly drawn) [compound 874799] | 210 nM
O=C(COc1ccc(Cl)cc1)N[C@H]1CC[C@H](NC(=O)COc2ccc(Cl)c(Cl)c2)CC1 [compound 874800] | 2 nM
Cc1cc(OCC(=O)N[C@H]2CC[C@H](NC(=O)COc3ccc(Cl)cc3)CC2)ccc1Cl [compound 874801] | 2.4 nM
O=C(COc1ccc(Cl)cc1)N[C@H]1CC[C@H](NC(=O)COc2ccc(Cl)c(F)c2)CC1 [compound 874802] | 2 nM
O=C(COc1ccc(Cl)cc1)N[C@H]1CC[C@H](NC(=O)COc2ccc(Cl)c(C(F)(F)F)c2)CC1 [compound 874803] | 4 nM
Clc1ccccc1CNC[C@H]1CC[C@H](CNCc2ccccc2Cl)CC1 [compound 874805] | > 10000 nM
O=C(Cc1ccc(Cl)cc1)NCc1ccc(CNC(=O)Cc2ccc(Cl)cc2)cc1 [compound 885253] | > 10000 nM
O=C(NCc1ccc(CNC(=O)Oc2ccc(Cl)cc2)cc1)Oc1ccc(Cl)cc1 [compound 885254] | > 10000 nM
O=C(COc1ccc(Cl)cc1)N[C@H]1CC[C@H](CNC(=O)Oc2ccc(Cl)cc2)CC1 [compound 885255] | 30 nM
O=C(Cc1ccc(Cl)cc1)NC[C@H]1CC[C@H](NC(=O)COc2ccc(Cl)cc2)CC1 [compound 885256] | 152 nM
O=C(N[C@H]1CC[C@H](NC(=O)OCc2ccc(Cl)cc2)CC1)OCc1ccc(Cl)cc1 [compound 885257] | > 10000 nM
O=C(COc1ccc(Cl)cc1)N[C@H]1CC[C@H](NC(=O)COc2cccc(F)c2)CC1 [compound 912562] | 125 nM
O=C(COc1ccc(Cl)cc1)N[C@H]1CC[C@H](NC(=O)COc2cccc(F)c2F)CC1 [compound 912563] | 334 nM
O=C(COc1ccc(Cl)cc1)N[C@H]1CC[C@H](NC(=O)COc2cc(F)cc(F)c2)CC1 [compound 912564] | 220 nM
O=C(COc1ccc(Cl)cc1)N[C@H]1CC[C@H](NC(=O)COc2cc(Cl)cc(Cl)c2)CC1 [compound 912565] | > 10000 nM
CC(=O)c1cc(OCC(=O)N[C@H]2CC[C@H](NC(=O)COc3ccc(Cl)cc3)CC2)ccc1Cl [compound 912566] | 149 nM

SMILES | IC50
O=C(NC[C@H]1CC[C@H](CNC(=O)Oc2ccc(Cl)cc2)CC1)Oc1ccc(Cl)cc1 [compound 913815] | > 10000 nM
O=C(COc1ccc(Cl)cc1)N[C@H]1CC[C@H](NC(=O)COc2ccc(Cl)c(I)c2)CC1 [compound 914582] | 5.2 nM
C[Si](C)(C)C#Cc1cc(OCC(=O)N[C@H]2CC[C@H](NC(=O)COc3ccc(Cl)cc3)CC2)ccc1Cl [compound 914583] | 12 nM
C#Cc1cc(OCC(=O)N[C@H]2CC[C@H](NC(=O)COc3ccc(Cl)cc3)CC2)ccc1Cl [compound 914584] | 12 nM
O=C(COc1ccc(Cl)cc1)N[C@H]1CC[C@H](NC(=O)COc2ccc(I)cc2)CC1 [compound 914989] | 5.6 nM
C[Si](C)(C)C#Cc1ccc(OCC(=O)N[C@H]2CC[C@H](NC(=O)COc3ccc(Cl)cc3)CC2)cc1 [compound 916348] | 160 nM
C#Cc1ccc(OCC(=O)N[C@H]2CC[C@H](NC(=O)COc3ccc(Cl)cc3)CC2)cc1 [compound 916353] | 14 nM
C[C@@H]1NC(=O)N[C@@H]1CCCCCC(=O)NCCOCCOCCOCCn1cc(-c2ccc(OCC(=O)N[C@H]3CC[C@H](NC(=O)COc4ccc(Cl)cc4)CC3)cc2)nn1 [compound 916727] | 520 nM
C[C@@H]1NC(=O)N[C@@H]1CCCCCC(=O)NCCOCCOCCOCCn1cc(-c2cc(OCC(=O)N[C@H]3CC[C@H](NC(=O)COc4ccc(Cl)cc4)CC3)ccc2Cl)nn1 [compound 916728] | 1270 nM
C#Cc1ccc(OCC(=O)N[C@H]2CC[C@H](NC(=O)COc3ccc(C4(C(F)(F)F)N=N4)cc3)CC2)cc1 [compound 916751] | > 10000 nM
O=C(COc1ccc(I)cc1)N[C@H]1CC[C@H](NC(=O)COc2ccc(I)cc2)CC1 [compound 916784] | 51 nM
C[Si](C)(C)C#Cc1ccc(OCC(=O)N[C@H]2CC[C@H](NC(=O)COc3ccc(C#C[Si](C)(C)C)cc3)CC2)cc1 [compound 916785] | > 10000 nM
C#Cc1ccc(OCC(=O)N[C@H]2CC[C@H](NC(=O)COc3ccc(C#C)cc3)CC2)cc1 [compound 916786] | 158 nM
O=C(CCCC[C@H]1SC[C@@H]2NC(=O)N[C@@H]21)NCCCCCOC(=O)CCCCCn1cc(-c2ccc(OCC(=O)N[C@H]3CC[C@H](NC(=O)COc4ccc(Cl)cc4)CC3)cc2)nn1 [compound 916846] | 200 nM
O=C(CCCC[C@H]1SCC2NC(=O)NC21)NCCCCCOC(=O)CCCCCn1cc(-c2cc(OCC(=O)N[C@H]3CC[C@H](NC(=O)COc4ccc(Cl)cc4)CC3)ccc2Cl)nn1 (stereo partly drawn) [compound 916847] | 900 nM
C#Cc1ccc(OCC(=O)N[C@H]2CC[C@H](NC(=O)COc3ccc(Cl)c(C4(C(F)(F)F)N=N4)c3)CC2)cc1 [compound 955278] | > 10000 nM
O=C(COc1ccc(Cl)c(Cl)c1)N[C@H]1CC[C@H](NC(=O)COc2ccc(Cl)c(Cl)c2)CC1 [compound 957885] | 0.8 nM
Cc1cc(OCC(=O)N[C@H]2CC[C@H](NC(=O)COc3ccc(Cl)c(C)c3)CC2)ccc1Cl [compound 957886] | 3 nM
O=C(COc1ccc(Cl)c(C(F)(F)F)c1)N[C@H]1CC[C@H](NC(=O)COc2ccc(Cl)c(C(F)(F)F)c2)CC1 [compound 957887] | 11 nM
O=C(COc1ccc(Cl)c(F)c1)N[C@H]1CC[C@H](NC(=O)COc2ccc(Cl)c(F)c2)CC1 [compound 957888] | 0.6 nM
N=C(COc1ccc(Cl)c(Cl)c1)N[C@H]1CC[C@H](NC(=O)COc2ccc(Cl)c(Cl)c2)CC1 [compound 957914] | 40 nM

Same assay, conditions: Homo sapiens, HEK-293T, read-out: IC50 (nM) Cell-luc

SMILES | IC50
O=C(COc1ccc(I)cc1)N[C@H]1CC[C@H](NC(=O)COc2ccc(C3(C(F)(F)F)NN3)cc2)CC1 [compound 916744] | > 10000 nM
